How the values were obtained:
XIAP BIR2-3 = molecular target: T1, XIAP BIR2-3 (Homo sapiens, UniProt P98170, C202A/C213G); test: XIAP-BIR2-3 dimeric SMAC Peptide Homogeneous Time Resolved Fluorescence (HTRF) Assay; assay type: binding; conditions: 0.5 nM N-His-BIR2-3 (125-356, C202A/C213G, XIAP), 20 nM fluorescein labeled dimeric SMAC peptide; HTRF signal; read-out: XIAP BIR2-3 IC50
T1 construct: His-BIR2-3 (125-356, C202A/C213G, XIAP)
Method: B. […] Assays were performed in black, flat-bottom, 384-well plates. […] Compounds were dissolved at 3 mM in dimethylsulfoxide (DMSO) and evaluated at eleven serially diluted concentrations. IC50 and Ki values were derived by non-linear regression analysis.

XIAP BIR3 = molecular target: T2, XIAP BIR3 (Homo sapiens, UniProt P98170); test: XIAP-BIR3/SMAC Homogeneous Time Resolved Fluorescence (HTRF) Assay; assay type: binding; conditions: 1 nM N-His-BIR3 (241-356, XIAP), 5 nM fluorescein labeled SMAC peptide; HTRF signal; read-out: XIAP BIR3 IC50
T2 construct: His-BIR3 (241-356, XIAP)
Outline: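 Competition HTRF between XIAP-BIR3 and SMAC; reaction 60 min at room temperature, then anti-6×His-terbium Fab detection for a further 30 min.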

T1 sequence (P98170 125-356 C202A/C213G): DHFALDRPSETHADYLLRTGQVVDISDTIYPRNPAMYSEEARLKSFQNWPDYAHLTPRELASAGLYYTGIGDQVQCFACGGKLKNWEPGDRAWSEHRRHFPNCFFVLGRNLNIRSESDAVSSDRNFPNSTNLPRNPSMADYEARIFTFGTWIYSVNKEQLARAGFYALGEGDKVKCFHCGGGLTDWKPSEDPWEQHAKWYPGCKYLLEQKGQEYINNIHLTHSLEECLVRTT
T2 sequence (P98170 241-356): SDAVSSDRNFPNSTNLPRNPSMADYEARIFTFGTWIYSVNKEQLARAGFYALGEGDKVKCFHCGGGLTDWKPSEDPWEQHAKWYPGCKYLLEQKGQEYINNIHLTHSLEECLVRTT

SMILES | IC50 (XIAP BIR2-3) [nM] | IC50 (XIAP BIR3) [nM]
CN[C@@H](C)C(=O)N[C@H](C(=O)N1C[C@@H](c2ccc3c(c2)CN(C(=O)[C@@H](NC(=O)[C@H](C)NC)C(C)(C)C)[C@H](C(=O)N[C@@H]2CCCc4ccccc42)C3)C[C@H]1C(=O)N[C@@H](Cc1ccccc1)C(=O)Nc1cccc(-c2cnco2)c1)C(C)(C)C [Example 58, (S)-2-((S)-3,3-Dimethyl-2-((S)-2-(methylamino)propanamido)butanoyl)-7-((3R,5S)-1-((S)-3,3-dimethyl-2-((S)-2-(methylamino)propanamido)butanoyl)-5-(((S)-1-((3-(oxazol-5-yl)phenyl)amino)-1-oxo-3-phenylpropan-2-yl)carbamoyl)pyrrolidin-3-yl)-N-((R)-1,2,3,4-tetrahydronaphthalen-1-yl)-1,2,3,4-tetrahydroisoquinoline-3-carboxamide] | 2.3 | 7.6
CN[C@@H](C)C(=O)N[C@H](C(=O)N1C[C@@H](c2ccc3c(c2)CN(C(=O)[C@@H](NC(=O)[C@H](C)NC)C(C)(C)C)[C@H](C(=O)N[C@@H]2CCOc4ccccc42)C3)C[C@H]1C(=O)N[C@@H]1CCCc2ccccc21)C(C)(C)C [Example 33, (S)—N—((R)—Chroman-4-yl)-2-((S)-3,3-dimethyl-2-((S)-2-(methylamino)propanamido)butanoyl)-7-((3R,5S)-1-((S)-3,3-dimethyl-2-((S)-2-(methylamino)propanamido)butanoyl)-5-(((R)-1,2,3,4-tetrahydronaphthalen-1-yl)carbamoyl)pyrrolidin-3-yl)-1,2,3,4-tetrahydroisoquinoline-3-carboxamide] | 1.7 | 1.8
CN[C@@H](C)C(=O)N[C@H](C(=O)N1C[C@@H](c2ccc3c(c2)CN(C(=O)[C@@H](NC(=O)[C@H](C)NC)C(C)(C)C)[C@H](C(=O)N[C@@H]2CCCc4ccccc42)C3)C[C@H]1C(=O)N[C@@H](Cc1ccccc1)C(=O)NCc1nccs1)C(C)(C)C [Example 67, (S)-2-((S)-3,3-Dimethyl-2-((S)-2-(methylamino)propanamido)butanoyl)-7-((3R,5S)-1-((S)-3,3-dimethyl-2-((S)-2-(methylamino)propanamido)butanoyl)-5-(((S)-1-oxo-3-phenyl-1-((thiazol-2-ylmethyl)amino)propan-2-yl)carbamoyl)pyrrolidin-3-yl)-N-((R)-1,2,3,4-tetrahydronaphthalen-1-yl)-1,2,3,4-tetrahydroisoquinoline-3-carboxamide] | 2.1 | 9.3
CN[C@@H](C)C(=O)N[C@H](C(=O)N1CC(c2ccc3c(c2)CN(C(=O)[C@@H](NC(=O)[C@H](C)NC)C(C)(C)C)[C@H](C(=O)NC2CCCc4ccccc42)C3)C[C@H]1C(=O)NC(Cc1ccccc1)C(=O)NCc1ccc(OC)cc1)C(C)(C)C (stereo in doubt) [Example 70, (S)-2-((S)-3,3-Dimethyl-2-((S)-2-(methylamino)propanamido)butanoyl)-7-((3S,5S)-1-((S)-3,3-dimethyl-2-((S)-2-(methylamino)propanamido)butanoyl)-5-(((S)-1-((4-methoxybenzyl)amino)-1-oxo-3-phenylpropan-2-yl)carbamoyl)pyrrolidin-3-yl)-N-((R)-1,2,3,4-tetrahydronaphthalen-1-yl)-1,2,3,4-tetrahydroisoquinoline-3-carboxamide] | 2.2 | 8.9
CN[C@@H](C)C(=O)N[C@H](C(=O)N1Cc2cc(C(=O)N[C@H]3C[C@@H](C(=O)N[C@@H]4CCCc5ccccc54)N(C(=O)[C@@H](NC(=O)[C@H](C)NC)C(C)(C)C)C3)ccc2C[C@H]1C(=O)N[C@@H]1CCCc2ccccc21)[C@@H](C)OC [Example 7, (S)-N^7-((3S,5S)-1-((S)-3,3-Dimethyl-2-((S)-2-(methylamino)propanamido)butanoyl)-5-(((R)-1,2,3,4-tetrahydronaphthalen-1-yl)carbamoyl)pyrrolidin-3-yl)-2-((2S,3R)-3-methoxy-2-((S)-2-(methylamino)propanamido)butanoyl)-N^3-((R)-1,2,3,4-tetrahydronaphthalen-1-yl)-1,2,3,4-tetrahydroisoquinoline-3,7-dicarboxamide] | 6 | 6
CN[C@@H](C)C(=O)N[C@H](C(=O)N1Cc2cc([C@H]3C[C@@H](C(=O)N[C@@H]4CCCc5ccccc54)N(C(=O)[C@@H](NC(=O)[C@H](C)NC)C(C)(C)C)C3)ccc2C[C@H]1C(=O)N[C@H](CO)c1ccccc1F)C(C)(C)C [Example 35, (S)-2-((S)-3,3-Dimethyl-2-((S)-2-(methylamino)propanamido)butanoyl)-7-((3R,5S)-1-((S)-3,3-dimethyl-2-((S)-2-(methylamino)propanamido)butanoyl)-5-(((R)-1,2,3,4-tetrahydronaphthalen-1-yl)carbamoyl)pyrrolidin-3-yl)-N-((S)-1-(2-fluorophenyl)-2-hydroxyethyl)-1,2,3,4-tetrahydroisoquinoline-3-carboxamide] | 1.3 | 2.5
CN[C@@H](C)C(=O)N[C@H](C(=O)N1Cc2cc([C@H]3C[C@@H](C(=O)N[C@@H]4CCCc5ccccc54)N(C(=O)[C@@H](NC(=O)[C@H](C)NC)C(C)(C)C)C3)ccc2C[C@H]1C(=O)N[C@@H](Cc1ccccc1)C(=O)O)C(C)(C)C [Example 41, (S)-2-((S)-2-((S)-3,3-Dimethyl-2-((S)-2-(methylamino)propanamido)butanoyl)-7-((3R,5S)-1-((S)-3,3-dimethyl-2-((S)-2-(methylamino)propanamido)butanoyl)-5-(((R)-1,2,3,4-tetrahydronaphthalen-1-yl)carbamoyl)pyrrolidin-3-yl)-1,2,3,4-tetrahydroisoquinoline-3-carboxamido)-3-phenylpropanoic acid] | 1.5 | 4.6
CN[C@@H](C)C(=O)N[C@H](C(=O)N1C[C@@H](c2ccc3c(c2)CN(C(=O)[C@@H](NC(=O)[C@H](C)NC)C(C)(C)C)[C@H](C(=O)N[C@@H]2CCCc4ccccc42)C3)C[C@H]1C(=O)N[C@@H](Cc1ccccc1)C(=O)Nc1nncs1)C(C)(C)C [Example 52, (S)-7-((3R,5S)-5-(((S)-1-((1,3,4-Thiadiazol-2-yl)amino)-1-oxo-3-phenylpropan-2-yl)carbamoyl)-1-((S)-3,3-dimethyl-2-((S)-2-(methylamino)propanamido)butanoyl)pyrrolidin-3-yl)-2-((S)-3,3-dimethyl-2-((S)-2-(methylamino)propanamido)butanoyl)-N-((R)-1,2,3,4-tetrahydronaphthalen-1-yl)-1,2,3,4-tetrahydroisoquinoline-3-carboxamide] | 1.2 | 3.4

Source: US8889712B2, “IAP antagonists” (Bristol-Myers Squibb Company, priority 2012, dated 2014)
